For data set [1], the system named is KB (human oral epidermoid carcinoma cell line). The experiment in a line: MTT antiproliferative assay, KB. The class given is cell-based. The note with it: Homo sapiens; MTT, 72 h. An excerpt: (§1) All the synthesized compounds were screened for in vitro antiproliferative activity against four human cancer cell lines A549 (human lung cancer cell line), KB (human oral epidermoid carcinoma cell line), Hela (human cervical carcinoma cell line), MCF-7 (human breast cancer cell line) and two human normal cell lines HUVEC (human umbilical vein endothelial cell) and LO2 (human normal hepatocytes) through the 3-(4,5-dimethyl-2-thiazolyl)-2,5-diphenyl-2-H-tetrazolium bromide (MTT) assay.
(§2) Non-small-cell lung cancer (A549), oral epidermoid carcinoma (KB), cervical cancer (Hela) and breast cancer (MCF-7) cells were purchased from the American Type Culture Collection (ATCC, America). Human umbilical vein endothelial cell (HUVEC) and human normal hepatocytes (LO2) cells were provided by Guangzhou Medical University (Guangzhou, China). A549 and KB cells were cultured in RMPI-1640 medium (Gibco, America). Hela, MCF-7 and LO2 cells were cultured in DMEM medium (Gibco, America). HUVEC cells were cultured in Ham’s F-12K medium (Gibco, America). All the mediums were supplemented with 10% fetal bovine serum (FBS) (BI, State of Israel), 100 U/mL penicillin and 100 μg/mL streptomycin (Gibco, America), and all the cells were incubated in a sterile incubator at 37°C in an environment of 5% CO2. The tested compounds were dissolved in dimethyl sulfoxide (DMSO) at a concentration of 10 mM, and then diluted into different concentration of solutions by culture medium. The final concentration of DMSO was <0.01% (v/v) in all drug treatment groups to avoid the toxicity in the biological system. Untreated cells were used as a blank control and 5-fluorouracil treated cells were used as a positive control.
(§3) The incubated tumor cells were planted into 96-well plates (4×10^3 cells/well). After 24 h, the cells were adherent to the wall and treated with the compound 6e in different concentrations (0.78, 1.56, 3.12, 6.25, 12.50, 25.00, and 50.00 μM) for 72 h. Afterwards, the medium was supplemented with 10 µL MTT solution. After 4 h, the culture medium was removed and 100 µL DMSO was added. The absorbance was determined at the wavelength of 540 nm and 655 nm using a microplate reader (BioTek Epoch, America). The results were collected from three independent experiments. The IC50 was then calculated by using GraphPad Prism Software (version 7.0) and non-linear regression (curve fit).

Data set [2] deals with LO2 (human normal hepatocytes). The experiment in a line: MTT antiproliferative assay, LO2 normal cells. The note with it: Hepatocyte, 72 h. Type of data set: cell-based.
Source text: as §1, §2, §3

In data set [3] the test system is A549 (human lung cancer cell line). The experiment in a line: MTT antiproliferative assay, A549. Type of data set: cell-based. The note with it: for IC50: Homo sapiens, A549, MTT, 72 h.
Source text: as §1, §2, §3

Data set [4] concerns HUVEC (human umbilical vein endothelial cell). The experiment in a line: MTT antiproliferative assay, HUVEC normal cells. Type of data set: cell-based. The note with it: 72 h.
Source text: as §1, §2, §3

In data set [5] the test system is MCF-7 (human breast cancer cell line). The experiment in a line: MTT antiproliferative assay, MCF-7. The class given is cell-based. The note with it: MCF7, 72 h.
Source text: as §1, §2, §3

In data set [6] the test system is Hela (human cervical carcinoma cell line). The experiment in a line: MTT antiproliferative assay, Hela. Type of data set: cell-based. The note with it: 72 h.
Source text: as §1, §2, §3

The test system of data set [7] is various human cancer cells. Further details: method as in Yan et al., 2022. The note with it: ref Yan et al., 2022; read-out: IC50 values, anti-proliferative activities towards various human cancer cells; cited from earlier work.

Molecules are shown by their SMILES.

For `O=c1[nH]cc(F)c(=O)[nH]1` [5-FU, 5-Fluorouracil, reference compound], the IC50 in data set [1] was found to be 5.75 ± 2.23 µM; in data set [2] it was 10.68 ± 0.03 µM; in data set [3], 7.41 ± 0.09 µM; in data set [4], 4.08 ± 0.06 µM; in data set [5], 19.2 ± 3.29 µM; in data set [6], 1.37 ± 1.72 µM.

For the molecule `O=CC=C(Cl)c1cc2ccccc2oc1=O` [Compound 5a, 3-Chloro-3-(2-oxo-2H-chromen-3-yl)acrylaldehyde], the melting point fell in the range of 167 to 169 °C. Besides, in data set [1], half-maximal inhibition (IC50) was put at 1.3 ± 0.02 µM. This molecule returned a 50% inhibitory concentration (IC50) in data set [2] of 40.34 ± 0.02 µM. For the same molecule, in data set [3], the midpoint of inhibition, the IC50, lay at 7.97 ± 0.01 µM. Further, in data set [4], the IC50 came out at 22.8 ± 0.35 µM. For the same molecule, the IC50 in data set [5] stood at 3.55 ± 0.17 µM. For the same molecule, in data set [6], the IC50 is 1.01 ± 0.28 µM.

In the case of `O=CC=C(Cl)c1cc2ccc(O)cc2oc1=O` [Compound 5b, 3-Chloro-3-(7-hydroxy-2-oxo-2H-chromen-3-yl)acrylaldehyde], the melting point was 204 to 205 °C. The molecule further came in with an IC50 in data set [1] greater than 100 µM. The molecule also displayed an IC50 in data set [2] greater than 100 µM. In addition, in data set [3], the IC50 is greater than 100 µM. This molecule also yielded an IC50 in data set [4] greater than 100 µM. Besides, the IC50 in data set [5] is 6.74 ± 0.64 µM. In data set [6], this molecule registered an IC50 greater than 100 µM.

Turning to `CCN(CC)c1ccc2cc(C(Cl)=CC=O)c(=O)oc2c1` [Compound 5c, 3-Chloro-3-(7-(diethylamino)-2-oxo-2H-chromen-3-yl)acrylaldehyde], the melting point was in the range of 206 to 208 °C. In data set [1], this molecule came in with an IC50 of 3.15 ± 0.09 µM. In data set [2], this molecule came in with an IC50 of 52.65 ± 0.07 µM. In data set [3], this molecule showed an IC50 of 7.51 ± 0.02 µM. The same molecule registered an IC50 in data set [4] of 6.42 ± 0.51 µM. The same molecule returned an IC50 in data set [5] of 18.99 ± 0.18 µM. The molecule further registered an IC50 in data set [6] of 4.85 ± 0.19 µM.

Molecule `O=CC=C(Cl)c1cc2ccc(Br)cc2oc1=O` [Compound 5d, 3-(7-Bromo-2-oxo-2H-chromen-3-yl)-3-chloroacrylaldehyde] displayed a melting point of 182 to 183 °C. This molecule displayed an IC50 in data set [1] of 1.12 ± 0.03 µM. In data set [2], this molecule had an IC50 of 42.97 ± 0.04 µM. The “more potent than 5a and 5-FU” value in data set [3] (A549 cells, relative to 5a and 5-FU) turned out to be 10 fold. In data set [3], half-maximal inhibition (IC50) required 0.7 ± 0.05 µM. This molecule also registered an IC50 in data set [4] of 10.52 ± 0.02 µM. Moreover, the half-maximal inhibitory concentration (IC50) in data set [5] came out at 4.23 ± 0.15 µM. In data set [6], this molecule displayed an IC50 of 1.36 ± 0.43 µM.

`O=CC=C(Cl)c1cc2cc(O)ccc2oc1=O` [Compound 5e, 3-Chloro-3-(6-hydroxy-2-oxo-2H-chromen-3-yl)acrylaldehyde] returned a melting point of 250 to 252 °C. Also, the IC50 in data set [1] is 3.23 ± 0.3 µM. In data set [2], this molecule displayed an IC50 of 14.11 ± 0.04 µM. In data set [3], the half-maximal inhibitory concentration (IC50) worked out at 6.67 ± 0.01 µM. In addition, the IC50 in data set [4] stood at 34.84 ± 0.11 µM. For the same molecule, in data set [5], the concentration for half-maximal inhibition (IC50) was determined as 8.71 ± 0.31 µM. In data set [6], the IC50 is greater than 100 µM.

For the molecule `Cc1ccc2oc(=O)c(C(Cl)=CC=O)cc2c1` [Compound 5f, 3-Chloro-3-(6-methyl-2-oxo-2H-chromen-3-yl)acrylaldehyde], the melting point lay in the range of 179 to 181 °C. The same molecule showed an IC50 in data set [1] of 2.22 ± 0.04 µM. Also, 25.01 ± 0.03 µM corresponded to half-maximal inhibition in data set [2] (IC50). Also, the IC50 in data set [3] is 4.57 ± 0.01 µM. This molecule also registered an IC50 in data set [4] of 27.38 ± 0.24 µM. For the same molecule, in data set [5], inhibition was half-maximal at 20.1 ± 0.32 µM (IC50). In data set [6], this molecule displayed an IC50 of 3.82 ± 0.11 µM.

Take `O=CC=C(Cl)c1cc2cc(Br)ccc2oc1=O` [Compound 5g, 3-(6-Bromo-2-oxo-2H-chromen-3-yl)-3-chloroacrylaldehyde]: the melting point is 199 to 201 °C. The molecule further came in with an IC50 in data set [1] of 0.87 ± 0.01 µM. Further, in data set [2], the IC50 was found to be 66.36 ± 0.09 µM. The molecule also returned an IC50 in data set [3] of 2.45 ± 0.01 µM. The molecule further showed an IC50 in data set [4] of 10.9 ± 0.02 µM. Moreover, half-maximal inhibition in data set [5] (IC50) required 9.25 ± 0.1 µM. In data set [6], this molecule yielded an IC50 of 13.4 ± 0.22 µM.

In turn, `COc1ccc2cc(C(Cl)=CC=O)c(=O)oc2c1` [Compound 6a, 3-Chloro-3-(7-methoxy-2-oxo-2H-chromen-3-yl)acrylaldehyde] returned a melting point of 202 to 203 °C. The molecule also gave an IC50 in data set [1] of 3.41 ± 0.4 µM. The half-maximal inhibitory concentration (IC50) in data set [2] came out at 61.04 ± 0.03 µM. Also, half-maximal inhibition in data set [3] (IC50) required 2.78 ± 0.01 µM. This molecule gave a half-maximal inhibitory concentration (IC50) in data set [4] of 10.09 ± 0.07 µM. The molecule further displayed an IC50 in data set [5] of 12.4 ± 0.49 µM. This molecule registered an IC50 in data set [6] greater than 100 µM.

`CCOc1ccc2cc(C(Cl)=CC=O)c(=O)oc2c1` [Compound 6b, 3-Chloro-3-(7-ethoxy-2-oxo-2H-chromen-3-yl)acrylaldehyde] registered a melting point of 195 to 196 °C. The molecule also registered an IC50 in data set [1] greater than 100 µM. In data set [2], this molecule returned an IC50 greater than 100 µM. In addition, in data set [3], inhibition was half-maximal at 11.34 ± 0.07 µM (IC50). Further, the IC50 in data set [4] was greater than 100 µM. Further, the IC50 in data set [5] was found to be 23.29 ± 0.2 µM. It took 2.91 ± 0.17 µM to reach half-maximal inhibition in data set [6] (IC50).

For `CCCOc1ccc2cc(C(Cl)=CC=O)c(=O)oc2c1` [Compound 6c, 3-Chloro-3-(2-oxo-7-propoxy-2H-chromen-3-yl)acrylaldehyde], the melting point was in the range of 150 to 152 °C. Also, the IC50 in data set [1] is 4.54 ± 0.11 µM. The same molecule registered an IC50 in data set [2] of 43.52 ± 0.03 µM. Further, the IC50 in data set [3] came to 6.28 ± 0.04 µM. The same molecule came in with an IC50 in data set [4] of 53.92 ± 0.46 µM. Moreover, in data set [5], it took 1.73 ± 0.01 µM to reach half-maximal inhibition (IC50). In data set [6], this molecule showed an IC50 greater than 100 µM.

The molecule `CC(C)Oc1ccc2cc(C(Cl)=CC=O)c(=O)oc2c1` [Compound 6d, 3-Chloro-3-(7-isopropoxy-2-oxo-2H-chromen-3-yl)acrylaldehyde] had a melting point of 149 to 151 °C. The half-maximal inhibitory concentration (IC50) in data set [1] amounted to 4.28 ± 0.02 µM. In data set [2], this molecule gave an IC50 of 33.27 ± 0.02 µM. Besides, the concentration for half-maximal inhibition (IC50) in data set [3] is 5.61 ± 0.01 µM. The same molecule had an IC50 in data set [4] of 31.92 ± 0.07 µM. The molecule also registered an IC50 in data set [5] of 51.63 ± 0.13 µM. In addition, the 50% inhibitory concentration (IC50) in data set [6] is 22.7 ± 0.21 µM.

As for `O=CC=C(Cl)c1cc2ccc(OCc3ccc([N+](=O)[O-])cc3)cc2oc1=O` [Compound 6f, 3-Chloro-3-(7-((4-nitrobenzyl)oxy)-2-oxo-2H-chromen-3-yl)acrylaldehyde], the melting point was in the range of 250 to 252 °C. In data set [1], this molecule returned an IC50 greater than 100 µM. Further, the IC50 in data set [2] was greater than 100 µM. In addition, the half-maximal inhibitory concentration (IC50) in data set [3] is greater than 100 µM. Besides, the IC50 in data set [4] was greater than 100 µM. This molecule showed an IC50 in data set [5] greater than 100 µM. The molecule further had an IC50 in data set [6] greater than 100 µM.

As to `O=CC=C(Cl)c1cc2ccc(OCc3cccc(Br)c3)cc2oc1=O` [Compound 6g, 3-(7-((3-Bromobenzyl)oxy)-2-oxo-2H-chromen-3-yl)-3-chloroacrylaldehyde], the melting point lay in the range of 217 to 219 °C. Moreover, in data set [1], the IC50 was greater than 100 µM. The molecule further came in with an IC50 in data set [2] greater than 100 µM. This molecule also registered an IC50 in data set [3] greater than 100 µM. In data set [4], this molecule came in with an IC50 greater than 100 µM. Further, inhibition in data set [5] was half-maximal at 5.13 ± 0.07 µM (IC50). Also, the IC50 in data set [6] was greater than 100 µM.

`COc1ccc2c(/C=C(\C)C(=O)c3cc(OC)c(OC)c([Se]C)c3)c[nH]c2c1` [compound J]: the IC50 in data set [7] is 0.008 to 0.035 µM.

(Values after publication PMC10076643, “Design, synthesis and anticancer activity studies of 3-(coumarin-3-yl)-acrolein derivatives: Evidenced by integrating network pharmacology and vitro assay” (Frontiers in Pharmacology, 2023).)
